Experimental data: ChEMBL document CHEMBL5291721, “A preclinical secondary pharmacology resource illuminates target-adverse drug reaction associations of marketed drugs” (Nat Commun, 2023)

Assays:
[1] = molecular target: 3',5'-cyclic-AMP phosphodiesterase 4A (Homo sapiens, UniProt P27815); format: functional
[2] = molecular target: T1, Alpha-1A adrenergic receptor (Homo sapiens, UniProt P35348); format: functional, cell-based
T1 sequence (P35348 whole entry): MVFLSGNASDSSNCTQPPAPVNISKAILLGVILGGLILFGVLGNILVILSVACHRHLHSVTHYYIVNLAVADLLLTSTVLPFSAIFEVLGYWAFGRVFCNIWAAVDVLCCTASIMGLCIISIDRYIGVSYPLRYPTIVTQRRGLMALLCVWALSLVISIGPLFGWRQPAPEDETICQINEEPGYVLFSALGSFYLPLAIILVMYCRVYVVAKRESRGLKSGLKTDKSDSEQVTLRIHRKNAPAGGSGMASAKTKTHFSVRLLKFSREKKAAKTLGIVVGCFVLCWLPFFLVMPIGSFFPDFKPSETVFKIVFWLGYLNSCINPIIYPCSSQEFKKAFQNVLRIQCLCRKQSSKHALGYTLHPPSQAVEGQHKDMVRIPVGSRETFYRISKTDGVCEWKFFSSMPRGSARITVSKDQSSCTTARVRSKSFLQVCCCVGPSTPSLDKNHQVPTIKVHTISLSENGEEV

Estrogen receptor = molecular target: T2, Estrogen receptor (Homo sapiens, UniProt P03372)
T2 sequence (P03372 whole entry): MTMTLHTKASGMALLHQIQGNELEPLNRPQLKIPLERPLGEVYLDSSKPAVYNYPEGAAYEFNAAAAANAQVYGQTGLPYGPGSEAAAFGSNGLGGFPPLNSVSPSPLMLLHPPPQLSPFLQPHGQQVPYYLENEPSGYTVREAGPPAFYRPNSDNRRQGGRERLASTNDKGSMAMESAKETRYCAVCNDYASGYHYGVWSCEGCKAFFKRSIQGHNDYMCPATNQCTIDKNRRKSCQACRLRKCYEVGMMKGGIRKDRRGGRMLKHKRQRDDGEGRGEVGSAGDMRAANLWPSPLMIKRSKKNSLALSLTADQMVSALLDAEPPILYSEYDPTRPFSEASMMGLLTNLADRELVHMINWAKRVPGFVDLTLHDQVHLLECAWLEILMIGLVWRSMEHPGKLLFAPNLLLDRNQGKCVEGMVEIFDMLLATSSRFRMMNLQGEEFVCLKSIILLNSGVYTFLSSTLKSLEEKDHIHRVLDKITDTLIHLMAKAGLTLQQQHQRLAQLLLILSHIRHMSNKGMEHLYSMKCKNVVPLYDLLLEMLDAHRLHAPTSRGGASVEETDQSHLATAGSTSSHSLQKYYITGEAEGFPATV

[3] = molecular target: Gamma-aminobutyric acid receptor subunit alpha-1/alpha-2/beta-2/gamma-2 (Homo sapiens, UniProt P14867+P18507+P47869+P47870); format: protein-complex assay
Sequence of Gamma-aminobutyric acid receptor subunit alpha-1/alpha-2/beta-2/gamma-2 (P14867 whole entry): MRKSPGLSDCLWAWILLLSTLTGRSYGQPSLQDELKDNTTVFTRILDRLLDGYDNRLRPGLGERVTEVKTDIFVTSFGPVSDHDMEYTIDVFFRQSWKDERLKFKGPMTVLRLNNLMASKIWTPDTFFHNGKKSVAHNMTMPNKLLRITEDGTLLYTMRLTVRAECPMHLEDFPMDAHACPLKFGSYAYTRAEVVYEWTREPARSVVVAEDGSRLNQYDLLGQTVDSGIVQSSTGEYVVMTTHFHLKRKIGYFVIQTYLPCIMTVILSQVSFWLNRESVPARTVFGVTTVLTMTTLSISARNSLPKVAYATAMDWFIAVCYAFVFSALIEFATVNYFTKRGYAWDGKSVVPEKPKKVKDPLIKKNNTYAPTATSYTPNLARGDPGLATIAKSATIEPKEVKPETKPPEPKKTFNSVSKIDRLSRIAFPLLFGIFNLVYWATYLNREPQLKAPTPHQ
Sequence of Gamma-aminobutyric acid receptor subunit alpha-1/alpha-2/beta-2/gamma-2 (P47870 whole entry): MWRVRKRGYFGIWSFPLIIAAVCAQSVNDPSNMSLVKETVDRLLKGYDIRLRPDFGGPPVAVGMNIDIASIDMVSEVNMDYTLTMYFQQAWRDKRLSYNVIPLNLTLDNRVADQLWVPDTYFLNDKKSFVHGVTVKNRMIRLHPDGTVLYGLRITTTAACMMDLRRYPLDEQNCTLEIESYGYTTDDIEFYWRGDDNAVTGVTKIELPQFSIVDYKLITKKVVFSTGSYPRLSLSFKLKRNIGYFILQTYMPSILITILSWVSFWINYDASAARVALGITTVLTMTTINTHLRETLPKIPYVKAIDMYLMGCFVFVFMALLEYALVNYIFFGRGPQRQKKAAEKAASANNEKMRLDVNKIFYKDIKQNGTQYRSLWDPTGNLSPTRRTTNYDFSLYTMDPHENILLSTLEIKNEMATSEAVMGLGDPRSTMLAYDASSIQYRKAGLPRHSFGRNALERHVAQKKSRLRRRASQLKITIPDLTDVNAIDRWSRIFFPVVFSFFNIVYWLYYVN
Sequence of Gamma-aminobutyric acid receptor subunit alpha-1/alpha-2/beta-2/gamma-2 (P18507 whole entry): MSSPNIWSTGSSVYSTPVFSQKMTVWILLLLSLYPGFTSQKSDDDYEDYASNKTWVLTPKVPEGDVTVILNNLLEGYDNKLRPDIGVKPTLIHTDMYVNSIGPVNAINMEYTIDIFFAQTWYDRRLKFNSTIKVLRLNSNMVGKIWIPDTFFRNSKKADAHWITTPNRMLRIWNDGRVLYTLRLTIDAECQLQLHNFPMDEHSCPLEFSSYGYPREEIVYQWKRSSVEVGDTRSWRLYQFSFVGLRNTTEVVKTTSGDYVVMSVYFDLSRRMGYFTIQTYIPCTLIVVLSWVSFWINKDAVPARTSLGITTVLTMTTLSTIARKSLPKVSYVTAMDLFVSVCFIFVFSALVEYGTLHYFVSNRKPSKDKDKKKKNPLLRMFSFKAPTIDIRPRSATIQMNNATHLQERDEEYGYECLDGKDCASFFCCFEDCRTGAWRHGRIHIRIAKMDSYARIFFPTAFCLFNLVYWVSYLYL
Sequence of Gamma-aminobutyric acid receptor subunit alpha-1/alpha-2/beta-2/gamma-2 (P47869 whole entry): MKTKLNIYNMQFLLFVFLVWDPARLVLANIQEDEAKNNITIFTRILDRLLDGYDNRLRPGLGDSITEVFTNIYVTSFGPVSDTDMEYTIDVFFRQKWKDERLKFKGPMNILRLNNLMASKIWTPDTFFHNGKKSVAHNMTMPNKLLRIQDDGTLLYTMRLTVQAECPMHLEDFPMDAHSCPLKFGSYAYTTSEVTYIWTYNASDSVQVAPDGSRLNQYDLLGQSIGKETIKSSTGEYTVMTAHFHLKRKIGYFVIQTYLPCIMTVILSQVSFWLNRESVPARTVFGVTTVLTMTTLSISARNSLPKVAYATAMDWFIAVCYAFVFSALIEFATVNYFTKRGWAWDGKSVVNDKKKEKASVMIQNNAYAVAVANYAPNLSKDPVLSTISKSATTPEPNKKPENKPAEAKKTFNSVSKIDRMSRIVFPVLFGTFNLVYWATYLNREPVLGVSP

[4] = molecular target: T3, Peroxisome proliferator-activated receptor gamma (Homo sapiens, UniProt P37231); format: functional
T3 sequence (P37231 whole entry): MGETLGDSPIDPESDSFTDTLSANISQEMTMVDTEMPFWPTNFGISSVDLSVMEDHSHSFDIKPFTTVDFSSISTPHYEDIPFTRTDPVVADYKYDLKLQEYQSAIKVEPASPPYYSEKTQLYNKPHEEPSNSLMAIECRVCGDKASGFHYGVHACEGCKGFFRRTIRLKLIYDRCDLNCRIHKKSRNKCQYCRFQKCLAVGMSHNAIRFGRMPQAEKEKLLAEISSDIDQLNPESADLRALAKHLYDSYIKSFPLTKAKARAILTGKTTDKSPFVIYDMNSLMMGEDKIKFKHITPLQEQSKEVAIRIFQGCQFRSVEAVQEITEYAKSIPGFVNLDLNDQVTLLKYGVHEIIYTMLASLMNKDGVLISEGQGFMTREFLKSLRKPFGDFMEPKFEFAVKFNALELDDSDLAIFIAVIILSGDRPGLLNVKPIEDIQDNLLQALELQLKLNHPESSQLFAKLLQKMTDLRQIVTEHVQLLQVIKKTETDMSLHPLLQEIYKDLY

[5] = molecular target: Beta-2 adrenergic receptor (Homo sapiens, UniProt P07550)
[6] = molecular target: T4, Muscarinic acetylcholine receptor M2 (Homo sapiens, UniProt P08172); format: functional, cell-based
T4 sequence (P08172 whole entry): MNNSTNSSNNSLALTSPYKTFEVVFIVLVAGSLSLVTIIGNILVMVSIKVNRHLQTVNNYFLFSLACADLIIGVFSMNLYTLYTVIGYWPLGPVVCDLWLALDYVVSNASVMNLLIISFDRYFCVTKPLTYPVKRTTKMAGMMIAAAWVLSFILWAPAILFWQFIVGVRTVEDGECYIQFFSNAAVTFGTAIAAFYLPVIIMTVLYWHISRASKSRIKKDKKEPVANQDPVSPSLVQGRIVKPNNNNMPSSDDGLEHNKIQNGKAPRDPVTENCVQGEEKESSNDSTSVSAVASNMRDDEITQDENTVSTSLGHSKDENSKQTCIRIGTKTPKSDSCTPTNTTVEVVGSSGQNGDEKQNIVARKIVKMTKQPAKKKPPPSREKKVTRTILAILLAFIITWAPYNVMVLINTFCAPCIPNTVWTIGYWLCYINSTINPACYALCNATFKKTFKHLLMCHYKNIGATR

Thromboxane A2 receptor = molecular target: T5, Thromboxane A2 receptor (Homo sapiens, UniProt P21731)
T5 sequence (P21731 whole entry): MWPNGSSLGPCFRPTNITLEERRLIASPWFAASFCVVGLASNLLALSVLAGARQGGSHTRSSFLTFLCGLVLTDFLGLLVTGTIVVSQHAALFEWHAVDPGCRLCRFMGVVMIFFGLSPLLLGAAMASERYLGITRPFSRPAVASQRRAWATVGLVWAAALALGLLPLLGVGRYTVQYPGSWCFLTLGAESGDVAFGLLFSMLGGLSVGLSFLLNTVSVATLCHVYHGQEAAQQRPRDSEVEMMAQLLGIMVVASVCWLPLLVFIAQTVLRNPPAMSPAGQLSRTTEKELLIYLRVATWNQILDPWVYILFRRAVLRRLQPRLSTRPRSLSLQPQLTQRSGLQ

[7] = molecular target: Sodium channel protein type 5 subunit alpha (Homo sapiens, UniProt Q14524); format: functional, cell-based
Sequence of Sodium channel protein type 5 subunit alpha (Q14524 whole entry): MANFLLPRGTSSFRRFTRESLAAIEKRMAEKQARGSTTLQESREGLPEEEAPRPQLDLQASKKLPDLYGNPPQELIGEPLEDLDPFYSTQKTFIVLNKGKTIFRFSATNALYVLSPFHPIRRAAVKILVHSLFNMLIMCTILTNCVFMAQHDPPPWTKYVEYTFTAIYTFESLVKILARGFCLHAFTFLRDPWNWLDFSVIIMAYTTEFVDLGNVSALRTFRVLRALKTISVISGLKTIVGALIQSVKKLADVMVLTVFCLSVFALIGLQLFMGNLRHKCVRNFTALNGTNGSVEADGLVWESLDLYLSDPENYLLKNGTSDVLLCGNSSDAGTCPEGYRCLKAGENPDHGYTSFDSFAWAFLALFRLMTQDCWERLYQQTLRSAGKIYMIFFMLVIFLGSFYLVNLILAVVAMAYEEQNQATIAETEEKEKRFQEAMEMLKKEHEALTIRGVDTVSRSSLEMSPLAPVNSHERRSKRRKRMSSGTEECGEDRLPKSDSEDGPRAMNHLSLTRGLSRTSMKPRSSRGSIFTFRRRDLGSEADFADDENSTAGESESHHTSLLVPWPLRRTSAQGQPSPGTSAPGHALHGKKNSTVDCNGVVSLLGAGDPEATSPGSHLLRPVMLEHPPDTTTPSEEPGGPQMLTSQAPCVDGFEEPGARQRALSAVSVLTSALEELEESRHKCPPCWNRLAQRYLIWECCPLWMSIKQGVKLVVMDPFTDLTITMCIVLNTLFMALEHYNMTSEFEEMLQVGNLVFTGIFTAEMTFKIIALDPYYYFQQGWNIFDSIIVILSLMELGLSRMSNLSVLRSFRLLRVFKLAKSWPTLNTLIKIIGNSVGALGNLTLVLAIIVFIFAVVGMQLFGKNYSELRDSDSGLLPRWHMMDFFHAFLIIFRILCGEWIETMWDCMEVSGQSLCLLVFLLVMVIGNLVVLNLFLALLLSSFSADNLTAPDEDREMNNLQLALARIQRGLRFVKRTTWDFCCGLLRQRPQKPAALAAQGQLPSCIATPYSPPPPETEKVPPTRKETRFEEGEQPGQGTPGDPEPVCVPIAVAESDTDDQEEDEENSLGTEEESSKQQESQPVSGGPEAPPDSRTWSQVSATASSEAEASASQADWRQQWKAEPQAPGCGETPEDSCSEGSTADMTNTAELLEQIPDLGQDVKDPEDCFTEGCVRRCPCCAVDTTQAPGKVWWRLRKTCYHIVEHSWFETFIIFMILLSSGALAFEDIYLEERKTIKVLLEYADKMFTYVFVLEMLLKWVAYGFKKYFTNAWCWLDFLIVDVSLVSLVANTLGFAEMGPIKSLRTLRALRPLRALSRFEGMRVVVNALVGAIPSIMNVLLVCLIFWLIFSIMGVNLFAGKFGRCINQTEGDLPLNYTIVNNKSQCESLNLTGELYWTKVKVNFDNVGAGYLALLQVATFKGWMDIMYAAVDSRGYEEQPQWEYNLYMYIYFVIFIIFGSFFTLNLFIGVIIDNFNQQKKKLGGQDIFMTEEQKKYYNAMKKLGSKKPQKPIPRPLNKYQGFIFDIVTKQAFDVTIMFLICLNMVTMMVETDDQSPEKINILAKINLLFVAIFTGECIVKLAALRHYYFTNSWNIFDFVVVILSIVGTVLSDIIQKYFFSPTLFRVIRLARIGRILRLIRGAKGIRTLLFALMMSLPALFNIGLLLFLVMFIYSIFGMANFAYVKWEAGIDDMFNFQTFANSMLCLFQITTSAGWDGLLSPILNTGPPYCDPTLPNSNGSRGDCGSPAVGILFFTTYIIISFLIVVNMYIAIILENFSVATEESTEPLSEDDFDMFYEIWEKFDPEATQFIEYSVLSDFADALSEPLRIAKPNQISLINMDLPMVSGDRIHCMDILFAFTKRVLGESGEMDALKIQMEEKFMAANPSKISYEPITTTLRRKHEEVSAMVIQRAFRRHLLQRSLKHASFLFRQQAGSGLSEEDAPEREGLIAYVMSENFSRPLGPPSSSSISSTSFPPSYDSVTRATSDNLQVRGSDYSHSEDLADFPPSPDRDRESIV

[8] = molecular target: T1, Alpha-1A adrenergic receptor
Cannabinoid receptor 1 = Cannabinoid receptor 1 (Homo sapiens, UniProt P21554); format: functional, cell-based
[9] = molecular target: 5-hydroxytryptamine receptor 2A (Homo sapiens, UniProt P28223); format: functional, cell-based
Note: assay procedure not described here.

Sequence of 3',5'-cyclic-AMP phosphodiesterase 4A (P27815 whole entry): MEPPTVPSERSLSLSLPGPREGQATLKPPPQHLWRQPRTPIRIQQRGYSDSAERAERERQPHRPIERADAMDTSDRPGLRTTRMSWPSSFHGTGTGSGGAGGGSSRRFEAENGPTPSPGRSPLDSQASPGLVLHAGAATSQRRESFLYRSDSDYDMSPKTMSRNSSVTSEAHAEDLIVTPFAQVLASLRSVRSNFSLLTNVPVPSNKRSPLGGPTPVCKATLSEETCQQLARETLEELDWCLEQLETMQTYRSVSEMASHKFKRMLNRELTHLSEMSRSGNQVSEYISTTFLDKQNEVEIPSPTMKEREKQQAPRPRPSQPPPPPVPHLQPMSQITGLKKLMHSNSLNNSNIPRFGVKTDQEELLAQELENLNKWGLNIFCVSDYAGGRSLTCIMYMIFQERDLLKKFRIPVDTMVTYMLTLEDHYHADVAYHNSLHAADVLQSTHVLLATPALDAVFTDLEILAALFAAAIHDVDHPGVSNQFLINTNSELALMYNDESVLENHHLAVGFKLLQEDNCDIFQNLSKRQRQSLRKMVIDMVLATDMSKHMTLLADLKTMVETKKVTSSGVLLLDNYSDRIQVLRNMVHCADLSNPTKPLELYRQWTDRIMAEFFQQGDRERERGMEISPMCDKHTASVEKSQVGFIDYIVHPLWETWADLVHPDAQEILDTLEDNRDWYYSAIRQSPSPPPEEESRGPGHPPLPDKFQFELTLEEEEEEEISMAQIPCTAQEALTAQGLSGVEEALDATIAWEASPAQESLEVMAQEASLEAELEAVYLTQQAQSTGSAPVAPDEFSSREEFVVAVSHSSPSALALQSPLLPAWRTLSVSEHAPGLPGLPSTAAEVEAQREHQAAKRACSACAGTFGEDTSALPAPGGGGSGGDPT

Row | SMILES | AC50 [1] | AC50 [2] | AC50 (Estrogen receptor) | AC50 [3] | AC50 [4] | AC50 [5] | AC50 [6] | AC50 (Thromboxane A2 receptor) | AC50 [7] | AC50 [8] | AC50 (Cannabinoid receptor 1) | AC50 [9]
1 | CC(C)(Oc1ccc(Cl)cc1)C(=O)NC(=O)NCN1CCOCC1 [PLAFIBRIDE] | > 30 µM | > 30 µM | > 30 µM | > 30 µM |  |  |  |  |  |  |  | 
2 | CCCCCCCC/C=C\CCCCCCCC(=O)O [OLEIC ACID] | > 30 µM | > 30 µM | > 30 µM | > 30 µM | > 300 µM |  |  |  |  |  |  | 
3 | CNC1(c2ccccc2Cl)CCCCC1=O (centres undefined) [KETAMINE] | > 30 µM | > 30 µM | > 30 µM | > 30 µM |  |  |  |  |  |  |  | 
4 | Nc1nnc(-c2cccc(Cl)c2Cl)c(N)n1 [LAMOTRIGINE] |  |  |  |  |  | > 10 µM | > 10 µM | > 30 µM | > 50 µM | > 10 µM |  | 
5 | CC1=C(C/C=C(\C)CCC[C@H](C)CCC[C@H](C)CCCC(C)C)C(=O)c2ccccc2C1=O [PHYTONADIONE] | 9.52 µM | > 30 µM |  | > 30 µM |  |  |  |  |  |  |  | 
6 | CC(=O)NC[C@H]1CN(c2ccc(N3CCOCC3)c(F)c2)C(=O)O1 [LINEZOLID] |  |  |  |  |  |  |  | > 30 µM | > 50 µM |  | > 30 µM | 
7 | CN(C)CCN(Cc1ccccc1)c1ccccn1 [TRIPELENNAMINE] | > 30 µM | > 30 µM | > 30 µM |  |  | > 30 µM | > 10 µM | > 10 µM |  | 10.8 µM |  | 7.3 µM
8 | NC(=O)C1(N2CCCCC2)CCN(CCCN2c3ccccc3CCc3ccccc32)CC1 [CARPIPRAMINE] | > 30 µM | 13.7 µM | > 30 µM | > 30 µM |  |  |  |  |  |  |  | 
9 | CCOCC(O)COc1ccc(NC(=O)CC[S+](C)C)cc1 (centres undefined) |  |  |  |  | > 30 µM |  | > 30 µM |  |  |  | > 30 µM | > 30 µM
10 | CC#CC(=O)N1CCC[C@H]1c1nc(-c2ccc(C(=O)Nc3ccccn3)cc2)c2c(N)nccn12 [ACALABRUTINIB] | > 30 µM | > 30 µM | > 30 µM | > 30 µM |  |  |  |  |  |  |  | 
11 | Cc1ccc(C(C)C)c(O)c1 [THYMOL] | > 30 µM | > 30 µM | > 30 µM | > 30 µM |  |  |  |  |  |  |  | 
12 | Cc1cccc(C)c1NC(=O)c1cc(S(N)(=O)=O)c(Cl)cc1O [XIPAMIDE] | > 30 µM | > 30 µM |  | > 30 µM |  |  |  |  |  |  |  | 
13 | NC(=O)C1(N2CCCCC2)CCN(CCCC(=O)c2ccc(F)cc2)CC1 [PIPAMPERONE] | > 30 µM | > 30 µM | > 30 µM | > 30 µM |  |  |  |  |  |  |  | 
14 | CC(C)Nc1cccnc1N1CCN(C(=O)c2cc3cc(NS(C)(=O)=O)ccc3[nH]2)CC1 [DELAVIRDINE] | > 30 µM | > 30 µM | > 30 µM | > 10 µM |  |  |  |  |  |  |  | 
